Test results published in the supplement of paper PMC4862054.

How the values were obtained:
Settings in all cases: incubation time: 72 h
[1] = system: HCC1143; experiment: normalised response (% of control), CellTox Green; higher = less cell death (100 = DMSO, 0 = benzethonium chloride kill control)
Summary of the method: (§1)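 Breast cancer cell lines, seeded at 20 µl suspension per well, were incubated for 72 h in 384-well plates containing compound at 5 concentrations. These concentrations rose in 10-fold steps over a 10,000-fold range set for each compound. CellTox Green fluorescence (485/520 nm) was read, then CellTiter-Glo luminescence after 10 min at room temperature, and each plate was normalised to 0.1 % DMSO (100) and a positive kill control (0). Values are normalised signals, each at one concentration.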

[2] = system: Hs578T; experiment: as above
Summary of the method: as §1

[3] = system: BT-549; experiment: as above
Summary of the method: as §1

[4] = system: CAL-120; experiment: as above
Summary of the method: as §1

[5] = system: MCF-10A; experiment: as above
Summary of the method: as §1

[6] = system: BT-474; experiment: as above
Summary of the method: as §1

[7] = system: CAL-85-1; experiment: as above
Summary of the method: as §1

[8] = system: CAL-51; experiment: as above
Summary of the method: as §1

[9] = system: HCC1599; experiment: as above
Summary of the method: as §1

[10] = system: MFM-223; experiment: as above
Summary of the method: as §1

[11] = system: HCC1937; experiment: as above
Summary of the method: as §1

[12] = system: MDA-MB-436; experiment: as above
Summary of the method: as §1

[13] = system: MDA-MB-468; experiment: as above
Summary of the method: as §1

[14] = system: MDA-MB-231; experiment: as above
Summary of the method: as §1

[15] = system: CAL-148; experiment: as above
Summary of the method: as §1

[16] = system: MDA-MB-453; experiment: as above
Summary of the method: as §1

[17] = system: DU-4475; experiment: as above
Summary of the method: as §1

[18] = system: HDQ-P1; experiment: as above
Summary of the method: as §1

[19] = system: HCC1143; experiment: normalised response (% of control), CellTiter-Glo; higher = more viable cells (100 = DMSO, 0 = benzethonium chloride kill control)
Experimental: (§2)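 DSRT, 72 h incubation, CellTox Green / CellTiter-Glo readout. Signal is normalised to DMSO and benzethonium chloride controls. Value is the normalised response at the highest dose.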

[20] = system: Hs578T; experiment: as above
Experimental: as §2

[21] = system: BT-549; experiment: as above
Experimental: as §2

[22] = system: CAL-120; experiment: as above
Experimental: as §2

[23] = system: MCF-10A; experiment: as above
Experimental: as §2

[24] = system: BT-474; experiment: as above
Experimental: as §2

[25] = system: CAL-85-1; experiment: as above
Experimental: as §2

[26] = system: CAL-51; experiment: as above
Experimental: as §2

[27] = system: HCC1599; experiment: as above
Experimental: as §2

[28] = system: MFM-223; experiment: as above
Experimental: as §2

[29] = system: HCC1937; experiment: as above
Experimental: as §2

[30] = system: MDA-MB-436; experiment: as above
Experimental: as §2

[31] = system: MDA-MB-468; experiment: as above
Experimental: as §2

[32] = system: MDA-MB-231; experiment: as above
Experimental: as §2

[33] = system: CAL-148; experiment: as above
Experimental: as §2

[34] = system: MDA-MB-453; experiment: as above
Experimental: as §2

[35] = system: DU-4475; experiment: as above
Experimental: as §2

[36] = system: HDQ-P1; experiment: as above
Experimental: as §2

[37] = system: SK-BR-3; experiment: as above
Experimental: as §2

SMILES	normalised response [1] [%]	normalised response [2] [%]	normalised response [3] [%]	normalised response [4] [%]	normalised response [5] [%]	normalised response [6] [%]	normalised response [7] [%]	normalised response [8] [%]	normalised response [9] [%]	normalised response [10] [%]	normalised response [11] [%]	normalised response [12] [%]	normalised response [13] [%]	normalised response [14] [%]	normalised response [15] [%]	normalised response [16] [%]	normalised response [17] [%]	normalised response [18] [%]	normalised response [19] [%]	normalised response [20] [%]	normalised response [21] [%]	normalised response [22] [%]	normalised response [23] [%]	normalised response [24] [%]	normalised response [25] [%]	normalised response [26] [%]	normalised response [27] [%]	normalised response [28] [%]	normalised response [29] [%]	normalised response [30] [%]	normalised response [31] [%]	normalised response [32] [%]	normalised response [33] [%]	normalised response [34] [%]	normalised response [35] [%]	normalised response [36] [%]	normalised response [37] [%]
Cc1ccc(-c2cc(C(F)(F)F)nn2-c2ccc(S(N)(=O)=O)cc2)cc1 [Celecoxib] (10000 nM)	68.4	68.1	113	101	82.2	93	104	107	103	95.2	116	99.8	62.7	104	101	99	99.5	105	108	97.3	104	106	108	92.9	102	118	109	93.5	101	104	103	96.8	99.9	94.7	101	89.8	97.4
O=C(/C=C/c1cccnc1)NCCCCC1CCN(C(=O)c2ccccc2)CC1 [Daporinad] (1000 nM)	105	73.1	91.1	101	93.1	97.5	93.5	108	90.5	88.1	67.6	97.3	49.6	117	98.8	99.5	101	108	13.2	6.81	103	14	9.14	19.9	14.3	138	0.76	4.89	17.5	37.5	0.79	19.2	51.5	14.8	4.62	15.9	110
Nc1ncn([C@H]2C[C@H](O)[C@@H](CO)O2)c(=O)n1 [Decitabine] (10000 nM)	117	123	130	103	92.6	94	70	65.7	113	90.5	113	73.2	90	126	95.5	103	104	110	83.6	89.4	75.2	83.9	83.8	87.4	84.5	82.3	94.1	93.3	74.9	88.7	31.5	93	82.6	97.7	86.2	87.8	77.7
Nc1ccccc1NC(=O)c1ccc(CNC(=O)OCc2cccnc2)cc1 [Entinostat] (10000 nM)	104	110	69.9	88.6	90.9	54.9	8.15	29	75.2	74.4	43.6	38.9	-141	29.8	46.4	90.6	73.1	102	19	48.3	31.6	73.2	82.9	42	41.7	31.8	32.3	18	67.4	71.6	19.1	39.1	29.8	21.6	5.86	73.2	14.2
CC[C@H](Nc1ncnc2[nH]cnc12)c1nc2cccc(F)c2c(=O)n1-c1ccccc1 [GS-1101] (10000 nM)	99.5	109	114	98.2	102	97.9	96.4	107	93.5	95.4	94.4	111	59.5	86.4	79.9	73.4	95.5	61.4	81.3	76.5	69.6	77.8	63	71.4	93.1	120	107	77	78.7	59.8	64.7	73.6	86	61.8	96.3	71.7	62.9
C=CC(=O)N1CCC[C@@H](n2nc(-c3ccc(Oc4ccccc4)cc3)c3c(N)ncnc32)C1 [Ibrutinib] (1000 nM)	111	92	92.3	102	76.5	83.8	26.8	87.5	106	100	94.5	93	75.1	115	86.6	46.3	97.2	74.8	102	106	110	100	42.5	106	50.2	85.7	111	88.4	94.9	109	80.7	105	101	73.6	118	68.3	24.5
O=C(Cc1ccc(-c2ccc(OCCN3CCOCC3)cc2)cn1)NCc1ccccc1 [KX2-391] (10000 nM)	110	26.2	64.9	84	50.1	79.9	45.3	48.7	67.6	28	12.5	51	45.4	50.1	84.2	99.2	97.6	8.87	56.3	18.4	45.8	60.8	77	52	56.5	25.6	9.36	34.5	69.1	26.2	28	46.6	54.9	61.2	58.9	73.8	19.9
N#Cc1ccc(C(c2ccc(C#N)cc2)n2cncn2)cc1 [Letrozole] (10000 nM)	127	66.7	102	101	103	102	94.2	116	101	100	94.5	93.9	70.7	105	97.9	98.1	101	107	97.7	97.7	96.3	98.8	106	91.7	97.8	128	85.2	99.8	100	102	97	91.5	101	96.8	98.8	103	101
C[C@H]1C[C@@H]2[C@H]([C@@H](O)C[C@@]3(C)[C@H]2CC[C@]3(O)C(=O)CO)[C@@]2(C)C=CC(=O)C=C12 [Methylprednisolone] (10000 nM)	121	126	111	102	99.1	99.9	73.1	119	86.3	93.2	94.8	91.9	151	154	93.7	101	103	111	104	108	98.4	77.7	101	151	112	130	103	99.6	97.5	102	106	146	112	96.7	104	89.9	94.5
